This is an account of results in PubChem BioAssay AID2060601 (Molecular Pharmacology Branch, DTP, NCI, 2025).

Where “and” joins values, the source holds several entries; their conditions need not be identical. Identical values can stand only once. Where only a bound is given, the exact number is not on record here.

This experiment concerns 874868-142-R-J2-PDC complex spheroids, growth % test/control. As to the kind of experiment: Anticancer human tumor 874868-142-R-J2-PDC patient-derived head and neck squamous carcinoma cell line growth inhibition [CLK]. The following applies: for viability, T/C: stronger effect = lower value. From the text: A high-throughput screen of multi-cell type tumor spheroids was designed to identify active combinations of […] and targeted small molecules. Complex spheroids include a stromal component modeled by human endothelial cells (HUVEC) and fibroblasts modeled by human mesenchymal stem cells (MSCs). The concentration ranges selected for each drug and investigational agent were based upon clinically achievable concentrations if the clinical Cmax of the agent was known.
Compounds. The drugs and investigational agents: cirtuvivint (SM08502; NSC835563), CC-671 (NSC850746), vemurafenib (NSC761431), tapotoclax (NSC804041), sotorasib (NSC818433), adagrasib (NSC831453), MRTX-1133 (NSC836407), BAY2416964 (NSC825713), copanlisib (NSC816437), inavolisib (NSC800729), abemaciclib (NSC768073), osimertinib (NSC779217), entinostat (NSC756642), eltanexor (KPT-8602, NSC794443), venetoclax (NSC766270), ceralasertib (NSC777638), bortezomib (NSC756655), olaparib (NSC753686), talazoparib (NSC767125), alisertib (NSC759677), peposertib (NSC802822), gemcitabine (NSC613327), 5-fluorouracil (NSC19893), SN-38 (NSC673596), oxaliplatin (NSC266046), paclitaxel (NSC125973), and doxorubicin (NSC123127), were obtained from the National Cancer Institute (NCI) Developmental Therapeutics Program Chemical Repository. The FDA-approved anticancer drug set is available from the Developmental Therapeutics Program at https://dtp.cancer.gov/organization/dscb/obtaining/available plates.htm. […] The stock solutions were prepared in dimethyl sulfoxide (DMSO, Sigma-Aldrich, St. Louis, MO, cat. D2650), except for the platinum complexes which were prepared in saline (Quality Biological, Gaithersburg, MD, cat. 114-055-101), at 800-fold the tested concentration and stored at -70 degrees C prior to their use. All drugs and investigational agents were tested over a range starting from a high concentration at or near the clinical Cmax and decreasing in half-log increments. If the clinical Cmax for an agent had not been determined, the highest concentration tested was 10 microM.
Cell Culture. All cells were maintained in an incubator at 37 degrees C and 5% CO2 with 95% humidity. The PDC lines were cultured according to standard operating procedures established by the NCI PDMR. Briefly, all PDCs were thawed and cultured in Matrigel-coated flasks prepared with a working solution of 1X Ham's F-12 nutrient mix, without supplementation (Invitrogen, Waltham, MA, cat. 11765054), 100 U/mL penicillin-streptomycin (Invitrogen, cat. 15140122), and 2.5% Matrigel (Corning Inc., Corning, NY, cat. 354248) for the first three passages. The 947758-054-R-J2-PDC line was cultured in 6B/Colon 1A media, which includes advanced DMEM/F-12 (Thermo Fisher Scientific, cat. 12634028), 10 mM HEPES (Thermo Fisher Scientific, cat. 15630080), 1X GlutaMAX supplement (Thermo Fisher Scientific, cat. 35050061), 0.1 mg/mL primocin (InvivoGen, cat. ant-pm-2), 10% defined fetal bovine serum, heat inactivated (HyClone Laboratories Inc., cat. SH30070.03HI), 1.25 mM N-Acetyl-L-cysteine (Sigma-Aldrich, cat. A9165), 10 mM nicotinamide (Sigma-Aldrich, cat. N0636), 1X B-27 supplement (Thermo Fisher Scientific, cat. 17504044), 1X N-2 supplement (Thermo Fisher Scientific, cat. 17502048), and 10 microM Y-27632 dihydrochloride (Tocris Bioscience, cat. 1254). The 876862-298-R-J1-PDC was cultured in 6E media, which includes all 6B/Colon 1A media components plus 50% L-WRN conditioned media (ATCC, cat. CRL-3276), 50 ng/mL recombinant human EGF recombinant protein (hEGF; Thermo Fisher Scientific, cat. PHG0311), 10 ng/mL recombinant human fibroblast growth factor 10 (hGFG-10; PeproTech, cat. 100-26), 1 ng/mL recombinant human fibroblast growth factor 2 (hFGF-2; PeproTech, cat. 100-18B), and 1 µM prostaglandin E2 (PGE2; Tocris, cat. 2296). The 227483-062-R1-J1-PDC line was cultured in Panc media, containing all 6E components except hFGF-2, with the addition of 500 nM SB-431542 (Selleckchem, cat. S1067) and 10 nM gastrin (Tocris, cat. 3006). […]
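Also: spheroids exposed to the compounds for 7 days.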

With `CC(=O)O[C@H]1C(=O)[C@@]2(C)[C@H]([C@H](OC(=O)c3ccccc3)[C@]3(O)C[C@H](OC(=O)[C@H](O)[C@@H](NC(=O)c4ccccc4)c4ccccc4)C(C)=C1C3(C)C)[C@]1(OC(C)=O)CO[C@@H]1C[C@@H]2O`, the viability, T/C is, setting by setting: (compound 0.0316 µM) 24.8% and 41.2%; (compound 0.1 µM) 22.5% and 38.5%; (compound 0.316 µM) 21.1% and 41.4%; (compound 1 µM) 28.7% and 47.2%; (compound 3.16 µM) 23.2% and 42.7%; (compound 10 µM) 36.4% and 50.2%. Further, the IC50 (curve of compound) was less than 31.6 nM.
With `CC1COCCN1c1cc(C2(S(C)(=N)=O)CC2)nc(-c2ccnc3[nH]ccc23)n1` (stereo unspecified), the viability, T/C is 93.5% and 84.9% (compound 0.0316 µM); 91.8% and 114% (compound 0.1 µM); 82.2% and 76% (compound 0.316 µM); 63.7% and 61.2% (compound 1 µM); 32.2% and 49% (compound 3.16 µM); 28.2% and 38.6% (compound 10 µM). For the same compound, the IC50 (curve of compound) was 1640 nM and 2160 nM.
Turning to `CNC(=O)c1ccc(Nc2nc(OC3CCCC3)c3c(-c4ccc5nc(C)oc5c4)c[nH]c3n2)c(OC)c1`, the viability, T/C was 89.6% [middle of 11 runs] (compound 0.1 µM); 60.3% [middle of 11 runs] (compound 0.316 µM); 50% [middle of 10 runs] (compound 1 µM); 44.5% [middle of 11 runs] (compound 3.16 µM); 42.6% [middle of 11 runs] (compound 10 µM).
Take `COc1ccc([C@@H](O)c2cc(-c3ncnc4cc(N5CCOCC5)ccc34)c(F)cc2Cl)nn1`: the viability, T/C is 93.7% and 87.2% (compound 0.0316 µM); 92% and 97.7% (compound 0.1 µM); 84.4% and 85% (compound 0.316 µM); 67.6% and 79.7% (compound 1 µM); 40.5% and 54.6% (compound 3.16 µM); 24.7% and 26.3% (compound 10 µM). In addition, the IC50 (curve of compound) was 2120 nM and 3830 nM.
Regarding `COc1cccc2c1C(=O)c1c(O)c3c(c(O)c1C2=O)CC(O)(C(=O)CO)CC3OC1CC(N)C(O)C(C)O1` (stereo unspecified), the viability, T/C reads like this: (compound 0.0316 µM) 74.8% and 74.3%; (compound 0.1 µM) 46.2% and 52.2%; (compound 0.316 µM) 18.9% and 27.4%; (compound 1 µM) 3.91% and 6.75%; (compound 3.16 µM) 0.09% and 0.19%; (compound 10 µM) 0.19% and 0.2%. In addition, the IC50 (curve of compound) is 86.8 nM and 114 nM.
Turning to `Nc1ccn(C2OC(CO)C(O)C2(F)F)c(=O)n1` (stereo unspecified), the viability, T/C runs as follows: (compound 0.0316 µM) 81.2% and 81.7%; (compound 0.1 µM) 78.9% and 76.2%; (compound 0.316 µM) 49.2% and 54.9%; (compound 1 µM) 31.5% and 44.2%; (compound 3.16 µM) 25.7% and 40.5%; (compound 10 µM) 30.1% and 32.9%. In addition, under “curve of compound”, the IC50 is 311 nM and 572 nM.
As to `O=C(c1cc(Cc2n[nH]c(=O)c3ccccc23)ccc1F)N1CCN(C(=O)C2CC2)CC1`, the viability, T/C reads like this: (compound 0.0316 µM) 102% and 97.1%; (compound 0.1 µM) 113% and 78.1%; (compound 0.316 µM) 95.2% and 74.9%; (compound 1 µM) 91.5% and 85.1%; (compound 3.16 µM) 86.9% and 76.4%; (compound 10 µM) 83.9% and 71.1%. In addition, under “curve of compound”, the IC50 was greater than 10000 nM.
For the compound `O=c1[nH]cc(F)c(=O)[nH]1`, the viability, T/C is, setting by setting: (compound 0.0316 µM) 96.6% and 97.4%; (compound 0.1 µM) 99.9% and 74.5%; (compound 0.316 µM) 85.2% and 65.8%; (compound 1 µM) 65.2% and 55.6%; (compound 3.16 µM) 38.4% and 53.1%; (compound 10 µM) 37% and 45.6%. Further, the IC50 (curve of compound) is 1990 nM and 4140 nM.
`CCCS(=O)(=O)Nc1ccc(F)c(C(=O)c2c[nH]c3ncc(-c4ccc(Cl)cc4)cc23)c1F` + CN1CCN(c2cc(C(=O)Nc3cc4cc(-c5cnn(C)c5)ccc4cn3)ccn2)CC1: the IC50 is greater than 10000 nM (curve of first compound, second compound 0.0316 µM); greater than 10000 nM (curve of first compound, second compound 0.1 µM); less than 31.6 nM (curve of first compound, second compound 0.316 µM); less than 31.6 nM (curve of first compound, second compound 1 µM); less than 31.6 nM (curve of first compound, second compound 3.16 µM); less than 31.6 nM (curve of first compound, second compound 10 µM). Besides, the viability, T/C is 99.5% (second compound 0.0316 µM, first compound 0.0316 µM); 95.3% (second compound 0.0316 µM, first compound 0.1 µM); 97.4% (second compound 0.0316 µM, first compound 0.316 µM); 120% (second compound 0.0316 µM, first compound 1 µM); 104% (second compound 0.0316 µM, first compound 3.16 µM); 88.4% (second compound 0.0316 µM, first compound 10 µM). Moreover, the viability, T/C by setting is: (second compound 0.1 µM, first compound 0.0316 µM) 71.4%; (second compound 0.1 µM, first compound 0.1 µM) 82.1%; (second compound 0.1 µM, first compound 0.316 µM) 101%; (second compound 0.1 µM, first compound 1 µM) 103%; (second compound 0.1 µM, first compound 3.16 µM) 99.2%; (second compound 0.1 µM, first compound 10 µM) 67.2%. The viability, T/C (second compound 0.316 µM, first compound 0.0316 µM) is 21.1%; the viability, T/C (second compound 0.316 µM, first compound 0.1 µM) was 18.1%; the viability, T/C (second compound 0.316 µM, first compound 0.316 µM) was 16%; the viability, T/C (second compound 0.316 µM, first compound 1 µM) is 14.8%; the viability, T/C (second compound 0.316 µM, first compound 3.16 µM) was 20.2%; the viability, T/C (second compound 0.316 µM, first compound 10 µM) is 17.8%. Also, the viability, T/C is 0.34% (second compound 1 µM, first compound 0.0316 µM); 0.78% (second compound 1 µM, first compound 0.1 µM); 0.38% (second compound 1 µM, first compound 0.316 µM); 0.32% (second compound 1 µM, first compound 1 µM); 0.26% (second compound 1 µM, first compound 3.16 µM); 3.04% (second compound 1 µM, first compound 10 µM). The viability, T/C by setting is: (second compound 3.16 µM, first compound 0.0316 µM) 0.22%; (second compound 3.16 µM, first compound 0.1 µM) 3.25%; (second compound 3.16 µM, first compound 0.316 µM) 0.32%; (second compound 3.16 µM, first compound 1 µM) 0.24%; (second compound 3.16 µM, first compound 3.16 µM) 0.3%; (second compound 3.16 µM, first compound 10 µM) 2.5%. For the same compound, the viability, T/C (second compound 10 µM, first compound 0.0316 µM) is 0.34%; the viability, T/C (second compound 10 µM, first compound 0.1 µM) was 0.84%; the viability, T/C (second compound 10 µM, first compound 0.316 µM) is 0.18%; the viability, T/C (second compound 10 µM, first compound 1 µM) is 0.18%; the viability, T/C (second compound 10 µM, first compound 3.16 µM) is 0.19%; the viability, T/C (second compound 10 µM, first compound 10 µM) was 2%.
